Reference: article PMC8157569 (Pharmaceuticals, 2021)
pIC50: −log10 of the molar value. Where a name gives a salt, the structure may show the parent alone.

Molecular target: T1, α1A-adrenoceptor (Homo sapiens, UniProt P35348)
T1 construct: gene ADRA1A
T1 sequence (P35348 1-466): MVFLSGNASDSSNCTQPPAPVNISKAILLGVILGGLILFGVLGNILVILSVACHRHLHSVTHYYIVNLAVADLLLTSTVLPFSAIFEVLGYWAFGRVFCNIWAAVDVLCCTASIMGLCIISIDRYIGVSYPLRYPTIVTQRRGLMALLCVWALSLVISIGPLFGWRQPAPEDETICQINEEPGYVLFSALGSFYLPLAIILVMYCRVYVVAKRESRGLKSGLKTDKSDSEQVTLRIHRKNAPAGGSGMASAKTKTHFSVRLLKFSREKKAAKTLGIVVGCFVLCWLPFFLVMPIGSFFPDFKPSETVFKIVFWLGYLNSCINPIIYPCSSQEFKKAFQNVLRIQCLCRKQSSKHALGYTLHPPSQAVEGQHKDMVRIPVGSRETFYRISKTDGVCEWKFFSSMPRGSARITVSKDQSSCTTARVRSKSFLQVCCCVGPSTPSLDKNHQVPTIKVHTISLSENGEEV
Assay: aequorin luminescence calcium assay, antagonist mode against phenylephrine, cells stably expressing human α1A-adrenoceptor
Assay type: cell-based

pIC50: 8.85
SMILES: COc1ccccc1N1CCN(CCCOc2c(C)cccc2C)CC1 [MH-76, 1-[3-(2,6-dimethylphenoxy)propyl]-4-(2-methoxyphenyl)piperazine hydrochloride]
